Test results taken from patent US20230338534A1, “METHOD” (AUTOLUS LIMITED, priority 2020, published 2023).

System: RQR8+ cells expressing TRBC2 CAR alone
Experiment: Tacrolimus effect on proliferation of CAR-T cells in 4 day co-culture
Assay type: cell-based
Conditions: 20 ng/ml; 4 days co-culture with TRBC2+ targets
Experimental: In a similar study, cells transduced to express either TRBC2 CAR alone or TRBC2 CAR in combination with a calcineurin mutant (CnB30) were co-cultured for 4 days with TRBC2+ positive targets in the presence or absence of 20 ng/ml of Tacrolimus. […] This was true for cells expressing TRBC2 CAR alone or co-expressing TRBC2 CAR in combination with the calcineurin mutant.

SMILES: C=CC[C@@H]1/C=C(\C)C[C@H](C)C[C@H](OC)[C@H]2O[C@@](O)(C(=O)C(=O)N3CCCC[C@H]3C(=O)O[C@H](/C(C)=C/[C@@H]3CC[C@@H](O)[C@H](OC)C3)[C@H](C)[C@@H](O)CC1=O)[C@H](C)C[C@@H]2OC [Tacrolimus, tacrolimus]
- effect on proliferation of cells expressing TRBC2 CAR alone: inhibits proliferation
